This is an account of results in PubChem BioAssay (NCI).

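1) Cells in 96-well plates. 2) Compound, 48 h, 5 concentrations. 3) Linear interpolation between surrounding doses. 4) Unreached endpoint = highest concentration. Abbreviation: GI50, concentration required for 50% inhibition of growth. TGI is the concentration that stops growth completely.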

Test systems include A549 NSCLC; ACHN renal; COLO 205 colon; EKVX NSCLC; KM12 colon; OVCAR-5 ovarian; SF-539 CNS; SN12C renal; UACC-62 melanoma; A498 renal.
What all share (test): NCI anticancer screen, dose series, 48 h

Turning to `N#CCc1cccc(CC#N)c1Br`, the TGI in the assay with A549 NSCLC, in the assay with ACHN renal, with COLO 205 colon, with EKVX NSCLC, with KM12 colon and with OVCAR-5 ovarian was more than 100 µM each time. Moreover, the TGI with SF-539 CNS, in the assay on SN12C renal and in the assay with UACC-62 melanoma was more than 100 µM each time.

As for `CC(C)OP(=O)(O)c1ncc(-c2ccc(C(F)(F)F)cc2)c(NC2CCCCCC2)n1`, the GI50 with A498 renal is more than 100 µM; with A549 NSCLC, more than 100 µM; in the assay on ACHN renal, more than 100 µM; in the assay with COLO 205 colon, more than 100 µM; in the assay with KM12 colon, 68.8 µM; with OVCAR-5 ovarian it was more than 100 µM. Moreover, the GI50 in the assay on SF-539 CNS is more than 100 µM; with SN12C renal, more than 100 µM; in the assay on UACC-62 melanoma, 49.7 µM. Further, the TGI in the assay with A498 renal, with A549 NSCLC, with ACHN renal, in the assay with COLO 205 colon, in the assay on KM12 colon and in the assay with OVCAR-5 ovarian was more than 100 µM in each case. Moreover, the TGI in the assay with SF-539 CNS, in the assay with SN12C renal and in the assay with UACC-62 melanoma was more than 100 µM in each case.

As to `CCOC(=O)[C@@H]1CSC(CC)=C(C(=O)O)N1`, the GI50 with A549 NSCLC, in the assay on ACHN renal, in the assay with COLO 205 colon, with EKVX NSCLC, in the assay with KM12 colon and in the assay on OVCAR-5 ovarian was more than 100 µM each time. The GI50 in the assay with SF-539 CNS, in the assay with SN12C renal and in the assay with UACC-62 melanoma was more than 100 µM throughout. In addition, the TGI in the assay with A549 NSCLC, with ACHN renal, with COLO 205 colon, in the assay on EKVX NSCLC, in the assay on KM12 colon and with OVCAR-5 ovarian was more than 100 µM each time. The TGI with SF-539 CNS, in the assay on SN12C renal and in the assay with UACC-62 melanoma was more than 100 µM throughout.

Turning to `COc1ccc(/C=C\c2cc(OC)c(OC)c(OC)c2)cc1`, the TGI was 13.2 µM in the assay on A498 renal; more than 100 µM in the assay with A549 NSCLC; more than 100 µM with ACHN renal; 11.5 µM in the assay with COLO 205 colon; more than 100 µM in the assay with KM12 colon; 90.8 µM with OVCAR-5 ovarian. In addition, the values for the TGI with SF-539 CNS, in the assay with SN12C renal and with UACC-62 melanoma were 0.00384 µM, more than 100 µM and more than 100 µM, respectively.

As for `Cc1ccc(S(=O)C(C)C(Cl)c2ccccc2)cc1` (stereo unspecified), the TGI in the assay with A498 renal, in the assay on ACHN renal, in the assay on COLO 205 colon, in the assay on OVCAR-5 ovarian, with SF-539 CNS and in the assay with SN12C renal was more than 100 µM in each case. In the assay on UACC-62 melanoma, this compound gave a TGI of more than 100 µM.

As to `CCCCC1(C(NC(=O)c2ccccc2Cl)c2ccncc2)C(=O)N(c2ccccc2)N(c2ccccc2)C1=O` (stereo unspecified), the TGI is more than 100 µM with A549 NSCLC; more than 100 µM with ACHN renal; 52.6 µM in the assay on COLO 205 colon; more than 100 µM in the assay with EKVX NSCLC; more than 100 µM in the assay with KM12 colon; more than 100 µM with OVCAR-5 ovarian. Moreover, the TGI in the assay on SF-539 CNS, with SN12C renal and with UACC-62 melanoma was more than 100 µM each time.

For the compound `Cc1cc(C)nc(NS(=O)(=O)c2ccc(Nc3c4ccccc4nc4c(C(=O)NCCN(C)C)cccc34)cc2)n1`, the TGI came to 16.1 µM in the assay on A549 NSCLC; 15.9 µM with ACHN renal; 23.6 µM in the assay on EKVX NSCLC; 18.4 µM with KM12 colon; 29.4 µM in the assay on OVCAR-5 ovarian; 14.9 µM in the assay on SF-539 CNS. Also, the TGI in the assay on SN12C renal is 17.3 µM; in the assay on UACC-62 melanoma it was 14.6 µM.

Turning to `COc1ccc(Br)c(C(=O)N2CCc3ccccc32)c1N`, the TGI in the assay on A549 NSCLC was more than 100 µM; in the assay with ACHN renal it was more than 100 µM; with COLO 205 colon, more than 100 µM; in the assay on KM12 colon, more than 100 µM; with OVCAR-5 ovarian, more than 100 µM; with SF-539 CNS, 97 µM. The TGI in the assay on SN12C renal and in the assay on UACC-62 melanoma was more than 100 µM throughout.

As to `COc1cc(OC)c2c(=O)c3cccc([N+](=O)[O-])c3n(C)c2c1`, the TGI in the assay with A549 NSCLC, in the assay on COLO 205 colon, in the assay on EKVX NSCLC, with KM12 colon, with SF-539 CNS and in the assay with SN12C renal was more than 100 µM in each case. The compound further returned a TGI with UACC-62 melanoma of more than 100 µM.

Turning to `Cn1cnnc1[S-].[Au+].c1ccc([PH+](c2ccccc2)c2ccccc2)cc1`, the GI50 in the assay with A549 NSCLC is 2.92 µM; in the assay with ACHN renal it was 1.77 µM; in the assay on KM12 colon it was 1.71 µM; in the assay on OVCAR-5 ovarian, 1.88 µM; in the assay on SF-539 CNS, 1.61 µM; in the assay on SN12C renal, 1.7 µM. Also, the GI50 with UACC-62 melanoma is 1.26 µM. The TGI with A549 NSCLC is 21.3 µM; in the assay with ACHN renal, 3.16 µM; in the assay with KM12 colon, 3.22 µM; in the assay with OVCAR-5 ovarian, 3.49 µM; in the assay with SF-539 CNS, 3 µM; in the assay on SN12C renal, 3.12 µM. This compound also yielded a TGI in the assay with UACC-62 melanoma of 2.55 µM.

Consider `O=c1cccc(Cl)[nH]1`, for which the TGI in the assay on A549 NSCLC, with ACHN renal, in the assay with COLO 205 colon, in the assay with EKVX NSCLC, in the assay with KM12 colon and with OVCAR-5 ovarian was more than 100 µM throughout. The TGI with SF-539 CNS, in the assay on SN12C renal and with UACC-62 melanoma was more than 100 µM throughout.
